# Test results taken from US12006332B2, “Aminopyrimidine derivatives as phosphatidylinositol phosphate kinase inhibitors” (HiberCell, Inc., priority 2019, dated 2024).
# Legend:
# PIP4K2 B = target: T1, PIP4K2 B (Homo sapiens, UniProt P78356); test: Kinase Assay-PIP4K2 B (Transcreener FI); assay type: biochemical
# T1 construct: made in house; host or cells: E. coli
# T1 sequence (P78356 1-416): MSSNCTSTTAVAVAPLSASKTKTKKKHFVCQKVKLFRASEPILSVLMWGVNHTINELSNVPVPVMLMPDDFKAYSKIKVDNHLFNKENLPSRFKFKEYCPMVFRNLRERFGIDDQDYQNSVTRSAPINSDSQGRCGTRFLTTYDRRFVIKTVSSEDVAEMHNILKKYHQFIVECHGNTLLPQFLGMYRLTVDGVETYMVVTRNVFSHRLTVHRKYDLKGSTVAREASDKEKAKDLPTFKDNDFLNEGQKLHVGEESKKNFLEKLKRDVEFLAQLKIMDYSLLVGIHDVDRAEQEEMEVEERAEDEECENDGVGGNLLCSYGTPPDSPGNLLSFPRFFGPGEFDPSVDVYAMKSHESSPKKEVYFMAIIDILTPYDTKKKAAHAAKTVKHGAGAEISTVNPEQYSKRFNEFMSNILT
# Text: GST tagged PIP4KtypeIIA and B enzymes were overexpressed in E. Coli and purified to >80% homogeneity. Phosphatidyl inositol-5-phosphate (PI5P, Cat. #850152, Avanti Polar Lipids Inc.) was used as the lipid substrate and phosphatidyl ethanolamine (DOPE 18:1, Cat. #850725, Avanti Polar Lipids Inc.) was used as the carrier lipid for assays. Ultrapure ATP and GTP was purchased from Bellbrooke Labs. ADP Glo reagents were obtained from Promega. Transcreener FI reagent was obtained from Bellbrooke labs.
# • 1. HEPES buffer mix: 200 mM HEPES pH 7.4, 50 mM MgCl2, 0.05% v/v triton X 100 • 2. HNE buffer: 20 mM HEPES, pH 7.4, 100 mM NaCl, 0.5 mM EGTA • 3. H:E buffer: 30 mM HEPES, pH 7.4, 1 mM EGTA
# GST-tagged PIP4KtypeIIB (3.4 μl, 2.77 mg/mL) was diluted to 5 mL using HNE buffer to yield 5× enzyme stock (25 nM)
# Lipid Preparation: In a 10 mL pyrex glass vial, […] were suspended in 2.5 mL of HEPES buffer mix and 2.5 mL of H:E buffer. The contents were mixed and sonicated for 3 min to yield a translucent lipid stock.
# Compound Preparation: Compounds were stored as 5 mM stocks in neat DMSO as room temperature in glass vials. 5 mM stocks were diluted to 2 mM and then serially diluted (3×) in neat DMSO in 96 well polypropylene plates. From the serially diluted stocks, 3 μL was delivered into 250 μL of 25% DMSO (in water) to generate 5× compound stocks. Typically, the highest compound conc. was 24 μM.
# The assay volume was kept at 25 μL. To each well of the reaction plate, 10 μL of lipid stock (1:1 ratio PI5P:DOPE) was delivered. This was followed by the addition of 5 μL of compound in 25% DMSO. Then, to each well, 5 μL of 25 nM (5×) typeIIB enzyme was delivered. The contents were mixed well and incubated for 1 h at 27° C. After 1 h, reaction was initiated by adding 5 μL of 500 μM GTP and the contents were mixed well with a multi-channel pipetteman. The final concentration of the reagents are as follows: 50 mM HEPES, pH 7.3, 10 mM MgCl2, 20 mM NaCl, 0.01% v/v triton-X100, 5% DMSO, 100 μM GTP, 80 μM (2 μg) PI5P, 2 μg DOPE, and 5 nM PIP4KIIB Typically, the highest conc. of compounds was 4.8 μM and the lowest conc. was 0.
# After 2 h, the reaction was quenched by adding 25 μL of transcreener FI reagent. The contents were incubated at rt for 1 h and the Fluorescence (Ex: 584 Em: 623) was read using Molecular Devices Paradigm plate reader. […] The blanks were averaged and subtracted from all other wells. Using a calibration curve, RFU was converted to μM GDP (product). IC50 was calculated by plotting the residual activity (expressed as % No inhibitor control) vs. log [Inh. conc.].
# MOLM-16 = MOLM-16 EC50 assay; assay type: cell-based; details: MOLM16
# PIP4K2A = target: T2, PIP4K2A (Homo sapiens, UniProt P48426); test: Kinase Assay-PIP4K2 A (ADP-Glo); assay type: biochemical
# T2 construct: made in house; host or cells: E. coli
# T2 sequence (P48426 1-406): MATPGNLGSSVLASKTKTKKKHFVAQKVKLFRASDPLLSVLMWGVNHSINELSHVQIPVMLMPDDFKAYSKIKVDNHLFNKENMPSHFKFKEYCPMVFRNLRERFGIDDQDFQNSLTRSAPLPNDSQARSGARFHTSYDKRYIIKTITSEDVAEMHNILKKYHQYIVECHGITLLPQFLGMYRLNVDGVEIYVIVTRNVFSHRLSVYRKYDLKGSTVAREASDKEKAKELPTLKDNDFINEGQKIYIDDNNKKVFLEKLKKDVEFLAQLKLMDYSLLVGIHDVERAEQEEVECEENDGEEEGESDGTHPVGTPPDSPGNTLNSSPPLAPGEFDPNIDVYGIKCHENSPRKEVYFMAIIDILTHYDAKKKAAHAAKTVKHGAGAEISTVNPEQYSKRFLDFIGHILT
# Method: Dilution series of the compounds were prepared in DMSO at 100 times the final assay concentration (n1=n0/3 in 10 points). The compounds were further diluted to three times the assay concentration in assay buffer (20 mM MOPS pH 7.2, 25 mM magnesium chloride, 0.005% Tween 20). 6 μL of the diluted compounds were added to a 384 well assay plate followed by 9 μL of a mix consisting of 4 nM PIP4K2A (full length protein, SignalChem) and 100 μM PI(5)P diC8 (Tebu-Bio). Enzyme and compounds were pre-incubated at room temperature for 15 minutes.
# Then 3 μL of a solution containing 60 μM ATP (Promega) in assay buffer was added to the wells containing compound and enzyme and mixing was performed by pipetting several times. The reaction was incubated at room temperature for 1 h. Then 18 μL of ADP-Glo™ Reagent (Promega) was added to stop the kinase reaction and deplete the unconsumed ATP, mixing was performed by pipetting several times. The plate was incubated at room temperature for 40 minutes before addition of 36 μL of Kinase Detection Reagent (Promega) to convert ADP to ATP and introduce luciferase and luciferin to detect ATP. The reaction was incubated at room temperature for 40 minutes before the luminescence was measured in a in a Victor 3V 1420 multilabel counter (Perkin Elmer).
# Percent inhibition of the compounds as compared to dimethyl sulfoxide treated control samples was calculated. Compound concentration versus percent inhibition were fitted to generate IC50 values. […]
Compound,IC50 (PIP4K2 B),EC50 (MOLM-16),IC50 (PIP4K2A)
"COc1nc(Nc2cncc(N(C)CC(=O)N3CCNCC3)c2)ncc1-c1ccc(N2CCCC2=O)cc1 [Compound 36, 1-(4-{4-methoxy-2-[(5-{methyl[2-oxo-2-(piperazin-1-yl)ethyl]amino}pyridin-3-yl)amino]pyrimidin-5-yl}phenyl)pyrrolidin-2-one]",10 to 100 nM,100 to 1000 nM,1 to 10 nM
"COc1nc(Nc2cncc(N(C)CCC(=O)N3CCNCC3)c2)ncc1-c1ccc(N2CCCC2=O)cc1 [Compound 39, 1-(4-{4-methoxy-2-[(5-{methyl[3-oxo-3-(piperazin-1-yl)propyl]amino}pyridin-3-yl)amino]pyrimidin-5-yl}phenyl)pyrrolidin-2-one]",10 to 100 nM,100 to 1000 nM,10 to 100 nM
"COc1nc(Nc2cncc(OCCN3CCC(F)(F)C3)c2)ncc1-c1ccc(-c2nnccc2C)cc1 [Compound 40, N-{5-[2-(3,3-difluoropyrrolidin-1-yl)ethoxy]pyridin-3-yl}-4-methoxy-5-[4-(4-methylpyridazin-3-yl)phenyl]pyrimidin-2-amine]",10 to 100 nM,100 to 1000 nM,10 to 100 nM

# Now from value to compound:
IC50 (PIP4K2 B),EC50 (MOLM-16),IC50 (PIP4K2A),Compound
10 to 100 nM,10 to 100 nM,10 to 100 nM,"COc1nc(Nc2cncc(N3CC[C@H](N(C)C)C3)c2)ncc1-c1ccc(-c2nnccc2C)cc1 [Compound 37, N-{5-[(3S)-3-(dimethylamino)pyrrolidin-1-yl]pyridin-3-yl}-4-methoxy-5-[4-(4-methylpyridazin-3-yl)phenyl]pyrimidin-2-amine]"
10 to 100 nM,10 to 100 nM,10 to 100 nM,"COc1nc(Nc2cncc(N3CC[C@H](N(C)C)C3)c2)ncc1-c1ccc(N2CCCC2=O)cc1 [Compound 38, 1-{4-[2-({5-[(3S)-3-(dimethylamino)pyrrolidin-1-yl]pyridin-3-yl}amino)-4-methoxypyrimidin-5-yl]phenyl}pyrrolidin-2-one]"
10 to 100 nM,10 to 100 nM,10 to 100 nM,"COc1nc(Nc2cncc(OCCN3CCC(F)(F)C3)c2)ncc1-c1ccc(N2CCCC2=O)cc1 [Compound 41, 1-{4-[2-({5-[2-(3,3-difluoropyrrolidin-1-yl)ethoxy]pyridin-3-yl}amino)-4-methoxypyrimidin-5-yl]phenyl}pyrrolidin-2-one]"
